Laboratory results as given in ChEMBL document CHEMBL4265942, “Four new antitumor metabolites isolated from a mutant 3-f-31 strain derived from Penicillium purpurogenum G59” (Eur J Med Chem, 2018).
Active and inactive are the calls of the source. The rule behind the calls is not given here.

How the values were obtained:
HCT-116 [1] = test: Upregulation of p53 expression in human HCT116 cells at 12.5 ug/ml after 48 hrs by Western blot analysis; format: functional, cell-based
HCT-116 [2] = test: Down regulation of survivin expression in human HCT116 cells at 12.5 ug/ml after 48 hrs by Western blot analysis; format: functional, cell-based
HL-60 = test: Antiproliferative activity against human HL60 cells assessed as inhibition of cell growth after 72 hrs by MTT assay; format: functional, cell-based; details: HL-60, 72 h
MCF7 = test: Antiproliferative activity against human MCF7 cells assessed as inhibition of cell growth after 72 hrs by sulforhodamine B assay; format: functional, cell-based; details: MCF7, 72 h
HepG2 = test: Antiproliferative activity against human HepG2 cells assessed as inhibition of cell growth after 72 hrs by sulforhodamine B assay; format: functional, cell-based; details: HepG2, 72 h
HCT-116 [3] = test: Antiproliferative activity against human HCT116 cells assessed as inhibition of cell growth after 72 hrs by sulforhodamine B assay; format: functional, cell-based; details: HCT-116, 72 h
LS180 = test: Antiproliferative activity against human LS180 cells assessed as inhibition of cell growth after 72 hrs by sulforhodamine B assay; format: functional, cell-based; details: LS180, 72 h
PANC-1 = test: Antiproliferative activity against human PANC1 cells assessed as inhibition of cell growth after 72 hrs by sulforhodamine B assay; format: functional, cell-based; details: PANC-1, 72 h
A549 = test: Antiproliferative activity against human A549 cells assessed as inhibition of cell growth after 72 hrs by sulforhodamine B assay; format: functional, cell-based; details: A549, 72 h
HT-29 = test: Antiproliferative activity against human HT-29 cells assessed as inhibition of cell growth after 72 hrs by sulforhodamine B assay; format: functional, cell-based; details: HT-29, 72 h
PC-3 = test: Antiproliferative activity against human PC3 cells assessed as inhibition of cell growth after 72 hrs by sulforhodamine B assay; format: functional, cell-based; details: PC-3, 72 h
HeLa = test: Antiproliferative activity against human HeLa cells assessed as inhibition of cell growth after 72 hrs by sulforhodamine B assay; format: functional, cell-based
NCI-H1975 = test: Antiproliferative activity against human NCI-H1975 cells assessed as inhibition of cell growth after 72 hrs by sulforhodamine B assay; format: functional, cell-based; details: NCI-H1975, 72 h
L929 = test: Cytotoxicity against mouse L929 cells assessed as inhibition of cell growth after 72 hrs by MTT assay; format: cell-based; details: L929, 72 h
BXPC-3 = test: Antiproliferative activity against human BxPC3 cells assessed as inhibition of cell growth after 72 hrs by sulforhodamine B assay; format: functional, cell-based; details: BXPC-3, 72 h
K562 = test: Antiproliferative activity against human K562 cells assessed as inhibition of cell growth after 72 hrs by MTT assay; format: functional, cell-based; details: K562, 72 h
SW480 = test: Antiproliferative activity against human SW480 cells assessed as inhibition of cell growth after 72 hrs by sulforhodamine B assay; format: functional, cell-based; details: SW480, 72 h
HCT-116 [4] = test: Antitumor activity against human HCT116 cells xenografted in BALB/c nu/nu mouse assessed as tumor growth inhibition at 5 mg/kg, iv administered every other day for 14 days measured 24 hrs post last dose relative to control; format: functional; details: HCT-116, iv, read-out: TGI
Mus musculus = test: Toxicity in BALB/c nu/nu mouse xenografted with human HCT116 cells assessed as spleen index at 5 mg/kg, iv administered every other day for 14 days measured 24 hrs post last dose (reference value: 0.41 +/- 0.08%); format: organism-based; details: in vivo
HCT-116 [5] = test: Down regulation of STAT3 expression in human HCT116 cells after 48 hrs by Western blot analysis; format: functional, cell-based
HCT-116 [6] = test: Down regulation of phosphorylated STAT3 expression in human HCT116 cells after 48 hrs by Western blot analysis; format: functional, cell-based
HCT-116 [7] = test: Down regulation of HSP90 expression in human HCT116 cells after 48 hrs by Western blot analysis; format: functional, cell-based
HCT-116 [8] = test: Down regulation of Raf1 expression in human HCT116 cells after 48 hrs by Western blot analysis; format: functional, cell-based
HCT-116 [9] = test: Down regulation of AKT expression in human HCT116 cells after 48 hrs by Western blot analysis; format: functional, cell-based
HCT-116 [10] = test: Down regulation of survivin expression in human HCT116 cells after 48 hrs by Western blot analysis; format: functional, cell-based
HCT-116 [11] = test: Down regulation of ERK1/2 expression in human HCT116 cells after 48 hrs by Western blot analysis; format: functional, cell-based

For `COc1cc([C@@H]2c3cc4c(cc3[C@@H](O[C@@H]3O[C@@H]5CO[C@@H](C)O[C@H]5[C@H](O)[C@H]3O)[C@H]3COC(=O)[C@H]23)OCO4)cc(OC)c1O`, the Activity (HCT-116 [1]) was “Active” and the Activity (HCT-116 [2]) was “Active”.

`CCCCCC[C@@H](C)C[C@@H](C)/C=C/C(N)=O` was tested, and the IC50 (HL-60) was 51.5 µM, the IC50 (MCF7) was 60.6 µM and the IC50 (HepG2) was 78.3 µM. The IC50 (HCT-116 [3]) was > 100 µM, the IC50 (LS180) was 64.5 µM and the IC50 (PANC-1) was 82.6 µM. The IC50 (A549) was 59.4 µM, the IC50 (HT-29) was 85.4 µM and the IC50 (PC-3) was > 100 µM. It also gave an IC50 (HeLa) of 78.3 µM, an IC50 (NCI-H1975) of 53.9 µM and an IC50 (L929) of 13.5 µM. For the same molecule, the IC50 (BXPC-3) was 67.7 µM, the IC50 (K562) was 62.5 µM and the IC50 (SW480) was 55 µM.

For `CCCCCC[C@@H](C)C[C@@H](C)/C=C/C(=O)N[C@H]1C[C@@]2(O[C@@H]1OC)[C@@H]1O[C@@H]1[C@](O)(CC(C)=O)[C@@H]1O[C@@H]12`, the IC50 (HL-60) was 10.8 µM, the IC50 (MCF7) was 4.06 µM and the IC50 (HepG2) was 9.58 µM. For the same molecule, the IC50 (HCT-116 [3]) was 2.61 µM, the IC50 (LS180) was 13.9 µM and the IC50 (PANC-1) was 5.77 µM. For the same molecule, the IC50 (A549) was 14.8 µM, the IC50 (HT-29) was 9.85 µM and the IC50 (PC-3) was 6.33 µM. For the same molecule, the IC50 (HeLa) was 8.65 µM, the IC50 (NCI-H1975) was 4.77 µM and the IC50 (L929) was 3.69 µM. The IC50 (BXPC-3) was 10.5 µM, the IC50 (K562) was 6.46 µM and the IC50 (SW480) was 3.85 µM.

Work on `CC(=O)O[C@@]12CO[C@@H]1C[C@H](O)[C@@]1(C)C(=O)[C@H](O)C3=C(C)[C@@H](OC(=O)[C@H](O)[C@@H](NC(=O)OC(C)(C)C)c4ccccc4)C[C@@](O)([C@@H](OC(=O)c4ccccc4)[C@H]21)C3(C)C` [DOCETAXEL ANHYDROUS] yielded an inhibition in vivo at 5 mg/kg (HCT-116 [4]) of 87.4% and an Activity_index (Mus musculus) of 0.25.

For `CCCCCC[C@@H](C)C[C@@H](C)/C=C/C(=O)N[C@@H]1C[C@@]2(O[C@@H]1O)[C@@H]1O[C@@H]1[C@](O)(CC(C)=O)[C@@H]1O[C@@H]12`, the IC50 (HL-60) was 3.13 µM, the Activity (HCT-116 [5]) was “Dose-dependent effect” and the Activity (HCT-116 [6]) was “Dose-dependent effect”. For the same molecule, the IC50 (MCF7) was 4.11 µM, the IC50 (HepG2) was 6.58 µM and the IC50 (HCT-116 [3]) was 2.54 µM. The IC50 (LS180) was 17 µM, the IC50 (PANC-1) was 4.42 µM and the IC50 (A549) was 9.83 µM. For the same molecule, the Activity (HCT-116 [7]) was “Dose-dependent effect”, the IC50 (HT-29) was 10.2 µM and the IC50 (PC-3) was 7.6 µM. The IC50 (HeLa) was 6.25 µM, the IC50 (NCI-H1975) was 3.37 µM and the Activity (HCT-116 [8]) was “Dose-dependent effect”. The IC50 (L929) was 4.68 µM, the Activity (HCT-116 [9]) was “Dose-dependent effect” and the Activity (HCT-116 [10]) was “Dose-dependent effect”. The IC50 (BXPC-3) was 7.3 µM, the Activity (HCT-116 [11]) was “Dose-dependent effect” and the IC50 (K562) was 5.16 µM. The IC50 (SW480) was 3.57 µM.
